Patent publication US20250331542A1, “SWEETENER COMPOSITIONS” (Firmenich SA, priority 2022, published 2025)

Experiments:
Type in all cases: in vivo, human
[1] = test system: sweet taste of a water solution containing 4% sucrose; assay: Sensory panel, sweet taste in sucrose solution; conditions: for Intensity (sweet): Sucrose solution; for sweet enhancing effect for a sucrose solution (in words): summary of Tables 1-12
Text: (§1) Methodology: A panel consisted of 8 to 25 trained panelists evaluating the samples for taste properties (sweet, and/or sweet off-taste such as lingering) on a scale of −5 to 5 (−5 denoted strong masking effect and 5 denoted strong enhancing effect, 0 being the intensity of a reference water solution containing 4% sucrose or 0.02% SG95 stevia product).

[2] = test system: sweet taste of a water solution containing 0.02% SG95 stevia product; assay: Sensory panel, sweet taste in SG95 stevia product solution; conditions: for Intensity (sweet): scale -5 to 5, 0 = reference 0.02% SG95; for sweet enhancing effect for an SG95 stevia product solution (in words): summary of Tables 5-6
Text: as §1

[3] = test system: lingering (sweet off-taste) of a water solution containing 0.02% SG95 stevia product; assay: Sensory panel, lingering off-taste in SG95 stevia product solution
Text: as §1

[4] = dosage 10 ppm, scale -5 (strong masking) to 5 (strong enhancing), 0 = reference 4% sucrose
[5] = dosage 40 ppm, scale -5 to 5, 0 = reference 4% sucrose

Structure (SMILES)	Intensity (sweet) [1, 4]	sweet enhancing effect for a sucrose solution (in words) [1]	further results
O=C1CC(c2ccc(O)cc2)Oc2cc(O)c([C@@H]3O[C@H](CO)[C@@H](O)[C@H](O)[C@H]3O)c(O)c21 (stereo partly drawn) [Compound 1, naringenin 6-C-β-D glucoside]	0.49	significant sweet enhancing effect	–
O=C1CC(c2ccc(O)c(O)c2)Oc2cc(O)c([C@@H]3O[C@H](CO)[C@@H](O)[C@H](O)[C@H]3O)c(O)c21 (stereo partly drawn) [Compound 4, eriodictyol 6-C-β-D glucoside]	0.64	significant sweet enhancing effect	–
COc1ccc(C2CC(=O)c3c(cc(O)c([C@@H]4O[C@H](CO)[C@@H](O)[C@H](O)[C@H]4O)c3O)O2)cc1O (stereo partly drawn) [Compound 7, hesperetin 6-C-β-D glucoside]	0.57	significant sweet enhancing effect	–
COc1ccc(C2CC(=O)c3c(O)c([C@@H]4O[C@H](CO)[C@@H](O)[C@H](O)[C@H]4O)c(O)c([C@@H]4O[C@H](CO)[C@@H](O)[C@H](O)[C@H]4O)c3O2)cc1O (stereo partly drawn) [Compound 9, hesperetin 6,8-di-C-β-D glucoside]	0.31	sweet enhancing effect	–
O=C(CCc1ccc(O)cc1)c1c(O)cc(O[C@@H]2O[C@H](CO)[C@@H](O)[C@H](O)[C@H]2O)c([C@@H]2O[C@H](CO)[C@@H](O)[C@H](O)[C@H]2O)c1O [Compound 13, trilobatin 3′-C-β-D glucoside]	0.67	significant sweet enhancing effect	–
C[C@@H]1O[C@@H](c2c(O)cc3c(c2O)C(=O)CC(c2ccc(O)cc2)O3)[C@H](O)[C@H](O)[C@H]1O (stereo partly drawn) [Compound 15, naringenin 6-C-rhamnoside]	–	sweet enhancing effect	–
CC1OC(c2c(O)cc3c(c2O)C(=O)CC(c2ccc(O)cc2)O3)C(O)C(O)C1O (stereo not drawn) [Compound 16, naringenin 6-C-rhamnoside]	–	sweet enhancing effect	–
O=c1cc(-c2ccc(O)c(O)c2)oc2cc(O)c([C@@H]3O[C@H](CO)[C@@H](O)[C@H](O)[C@H]3O)c(O)c12 [Compound 17, Isoorientin]	–	sweet enhancing effect	Intensity (sweet) [1, 5]: 0.25
O=c1cc(-c2ccc(O)c(O)c2)oc2c([C@@H]3O[C@H](CO)[C@@H](O)[C@H](O)[C@H]3O)c(O)cc(O)c12 [Compound 18, orientin]	–	significant sweet enhancing effect	Intensity (sweet) [1, 5]: 0.50
O=C(CCc1ccc(O)c(O)c1)c1c(O)cc(O)c([C@@H]2O[C@H](CO)[C@@H](O)[C@H](O)[C@H]2O)c1O [Compound 20, aspalathin]	0.42	significant sweet enhancing effect	–
O=C(CCc1ccc(O)cc1)c1c(O)cc(O)c([C@@H]2O[C@H](CO)[C@@H](O)[C@H](O)[C@H]2O)c1O [Compound 21, nothofagin]	0.46	significant sweet enhancing effect	Intensity (sweet) ([2]; dosage 20 ppm): 0.25; sweet enhancing effect for an SG95 stevia product solution (in words) [2]: sweet enhancing effect
O=C(CCc1ccc(O)cc1)c1c(O)c([C@@H]2O[C@H](CO)[C@@H](O)[C@H](O)[C@H]2O)c(O)c([C@@H]2O[C@H](CO)[C@@H](O)[C@H](O)[C@H]2O)c1O [Compound 22, Phloretin-3′,5′-di-C-β-D-glucoside]	–	sweet enhancing effect	Intensity (lingering) ([3]; dosage 40 ppm, scale -5 (strong masking) to 5, 0 = reference 0.02% SG95): −0.33; off taste masking effect for an SG95 stevia product solution (in words) ([3]; lingering): lingering masking; Intensity (sweet) [1, 5]: 0.23; Intensity (sweet) ([2]; dosage 40 ppm): 0.25; sweet enhancing effect for an SG95 stevia product solution (in words) [2]: sweet enhancing effect
O=c1cc(-c2ccc(O)cc2)oc2c([C@@H]3O[C@H](CO)[C@@H](O)[C@H](O)[C@H]3O)c(O)cc(O)c12 [Compound 23]	0.50	significant sweet enhancing effect	–
